In ChEMBL document CHEMBL6153174, “Design and Synthesis of Novel Deazapurine DNMT 1 Inhibitors with In Vivo Efficacy in DLBCL” (J Med Chem, 2025):
Calls of active or inactive are those of the source. No cut-off for these calls is given here.

Legend:
[1] = tested on: DOHH-2; assay: Induction of cell cycle arrest in human DOHH-2 cells assessed as accumulation of cells at G0-G1 phase at 0.5 uM incubated for 24 hrs by PI staining based flow cytometry analysis (reference value: 27.1%); type: functional
[2] = Apparent clearance during terminal phase in Sprague-Dawley rat at 10 mg/kg, po measured upto 24 hrs by LC/MS/MS analysis; type: ADME, organism-based; conditions: in vivo, read-out: CLz/F (converted)
[3] = tested on: DOHH-2; assay: Induction of apoptosis in human DOHH-2 cells assessed as late apoptotic cells at 1 uM measured after 48 hrs by annexin-V/FITC and PI staining based flow cytometry analysis (reference value: 3.66%); type: functional
[4] = Upregulation of BAX mRNA level in human DOHH-2 cells assessed as fold change at 300 nM measured after 6 days by PCR analysis; type: functional; conditions: time 6 day
[5] = tested on: TMD8; assay: Induction of cell cycle arrest in human TMD8 cells assessed as accumulation of cells at G0-G1 phase at 0.5 uM incubated for 24 hrs by PI staining based flow cytometry analysis (reference value: 40.7%); type: functional
[6] = Subacute toxicity in Balb/C mouse assessed as effect on lung at 30 mg/kg, iv administered three times in a week for 2 weeks; type: organism-based; conditions: in vivo, 336 h
[7] = Cmax in Sprague-Dawley rat at 10 mg/kg, iv measured upto 24 hrs by LC/MS/MS analysis; type: ADME, organism-based; conditions: in vivo
[8] = Upregulation of FAS mRNA level in human DOHH-2 cells assessed as fold change at 300 nM measured after 6 days by PCR analysis; type: functional; conditions: time 6 day
[9] = tested on: TMD8; assay: Induction of apoptosis in human TMD8 cells assessed as late apoptotic cells at 2.51 uM measured after 48 hrs by annexin-V/FITC and PI staining based flow cytometry analysis (reference value: 5.13%); type: functional
[10] = Volume of distribution at steady state in Sprague-Dawley rat at 10 mg/kg, po measured upto 24 hrs by LC/MS/MS analysis; type: ADME, organism-based; conditions: in vivo
[11] = Subacute toxicity in Balb/C mouse assessed as effect on peripheral blood at 10 mg/kg, iv administered three times in a week for 2 weeks; type: organism-based; conditions: in vivo, 336 h
[12] = tested on: DOHH-2; assay: Induction of cell cycle arrest in human DOHH-2 cells assessed as accumulation of cells at G0-G1 phase incubated for 24 hrs by PI staining based flow cytometry analysis; type: functional; conditions: dose 0.25-1 µM
[13] = tested on: HT-29; assay: Antiproliferative activity against human HT-29 cells assessed as inhibition of cell viability measured after 72 hrs by MTT assay; type: functional, cell-based; conditions: HT-29, 72 h
[14] = Subacute toxicity in Balb/C mouse assessed as effect on hemoglobin at 30 mg/kg, iv administered three times in a week for 2 weeks; type: organism-based; conditions: in vivo, 336 h
[15] = biological target: DNA (cytosine-5)-methyltransferase 1 (Homo sapiens, UniProt P26358); assay: Inhibition of DNMT1 in human DOHH-2 cells assessed as inhibition of DNA methylation incubated for 48 hrs by Western blot analysis; type: cell-based; conditions: dose 10-1000 nM
[16] = tested on: DOHH-2; assay: Induction of cell cycle arrest in human DOHH-2 cells assessed as accumulation of cells at G2-M phase at 0.25 uM incubated for 24 hrs by PI staining based flow cytometry analysis (reference value: 27.8%); type: functional
[17] = Volume of distribution at steady state in Sprague-Dawley rat at 10 mg/kg, iv measured upto 24 hrs by LC/MS/MS analysis; type: ADME, organism-based; conditions: in vivo, read-out: Vdss
[18] = tested on: DOHH-2; assay: Induction of apoptosis in human DOHH-2 cells assessed as early apoptotic cells at 5 uM measured after 48 hrs by annexin-V/FITC and PI staining based flow cytometry analysis (reference value: 5.69%); type: functional
[19] = AUC (0 to t) in Sprague-Dawley rat at 10 mg/kg, iv measured upto 24 hrs by LC/MS/MS analysis; type: ADME, organism-based; conditions: Sprague-Dawley, in vivo
[20] = tested on: DOHH-2; assay: Induction of cell cycle arrest in human DOHH-2 cells assessed as accumulation of cells at G2-M phase at 1.0 uM incubated for 24 hrs by PI staining based flow cytometry analysis (reference value: 27.8%); type: functional
[21] = biological target: DNA (cytosine-5)-methyltransferase 3A (Homo sapiens, UniProt Q9Y6K1); assay: Inhibition of DNMT3A (unknown origin) at 5 uM preincubated for 15 mins followed by substrate and [3H-SAM] addition and measured after 60 mins by microbeta analysis relative to control; conditions: time 75.0 min
[22] = tested on: DOHH-2; assay: Induction of cell cycle arrest in human DOHH-2 cells assessed as accumulation of cells at G2/M phase incubated for 24 hrs by PI staining based flow cytometry analysis; type: functional; conditions: dose 0.25-1 µM
[23] = tested on: U2932; assay: Antiproliferative activity against human U2932 cells assessed as inhibition of cell viability measured after 72 hrs by MTT assay; type: functional, cell-based; conditions: U2932, 72 h
[24] = tested on: TMD8; assay: Induction of cell cycle arrest in human TMD8 cells assessed as accumulation of cells at G2/M phase at 0.5 uM incubated for 24 hrs by PI staining based flow cytometry analysis (reference value: 20.4%); type: functional

Chain of DNA (cytosine-5)-methyltransferase 1 (P26358 whole entry): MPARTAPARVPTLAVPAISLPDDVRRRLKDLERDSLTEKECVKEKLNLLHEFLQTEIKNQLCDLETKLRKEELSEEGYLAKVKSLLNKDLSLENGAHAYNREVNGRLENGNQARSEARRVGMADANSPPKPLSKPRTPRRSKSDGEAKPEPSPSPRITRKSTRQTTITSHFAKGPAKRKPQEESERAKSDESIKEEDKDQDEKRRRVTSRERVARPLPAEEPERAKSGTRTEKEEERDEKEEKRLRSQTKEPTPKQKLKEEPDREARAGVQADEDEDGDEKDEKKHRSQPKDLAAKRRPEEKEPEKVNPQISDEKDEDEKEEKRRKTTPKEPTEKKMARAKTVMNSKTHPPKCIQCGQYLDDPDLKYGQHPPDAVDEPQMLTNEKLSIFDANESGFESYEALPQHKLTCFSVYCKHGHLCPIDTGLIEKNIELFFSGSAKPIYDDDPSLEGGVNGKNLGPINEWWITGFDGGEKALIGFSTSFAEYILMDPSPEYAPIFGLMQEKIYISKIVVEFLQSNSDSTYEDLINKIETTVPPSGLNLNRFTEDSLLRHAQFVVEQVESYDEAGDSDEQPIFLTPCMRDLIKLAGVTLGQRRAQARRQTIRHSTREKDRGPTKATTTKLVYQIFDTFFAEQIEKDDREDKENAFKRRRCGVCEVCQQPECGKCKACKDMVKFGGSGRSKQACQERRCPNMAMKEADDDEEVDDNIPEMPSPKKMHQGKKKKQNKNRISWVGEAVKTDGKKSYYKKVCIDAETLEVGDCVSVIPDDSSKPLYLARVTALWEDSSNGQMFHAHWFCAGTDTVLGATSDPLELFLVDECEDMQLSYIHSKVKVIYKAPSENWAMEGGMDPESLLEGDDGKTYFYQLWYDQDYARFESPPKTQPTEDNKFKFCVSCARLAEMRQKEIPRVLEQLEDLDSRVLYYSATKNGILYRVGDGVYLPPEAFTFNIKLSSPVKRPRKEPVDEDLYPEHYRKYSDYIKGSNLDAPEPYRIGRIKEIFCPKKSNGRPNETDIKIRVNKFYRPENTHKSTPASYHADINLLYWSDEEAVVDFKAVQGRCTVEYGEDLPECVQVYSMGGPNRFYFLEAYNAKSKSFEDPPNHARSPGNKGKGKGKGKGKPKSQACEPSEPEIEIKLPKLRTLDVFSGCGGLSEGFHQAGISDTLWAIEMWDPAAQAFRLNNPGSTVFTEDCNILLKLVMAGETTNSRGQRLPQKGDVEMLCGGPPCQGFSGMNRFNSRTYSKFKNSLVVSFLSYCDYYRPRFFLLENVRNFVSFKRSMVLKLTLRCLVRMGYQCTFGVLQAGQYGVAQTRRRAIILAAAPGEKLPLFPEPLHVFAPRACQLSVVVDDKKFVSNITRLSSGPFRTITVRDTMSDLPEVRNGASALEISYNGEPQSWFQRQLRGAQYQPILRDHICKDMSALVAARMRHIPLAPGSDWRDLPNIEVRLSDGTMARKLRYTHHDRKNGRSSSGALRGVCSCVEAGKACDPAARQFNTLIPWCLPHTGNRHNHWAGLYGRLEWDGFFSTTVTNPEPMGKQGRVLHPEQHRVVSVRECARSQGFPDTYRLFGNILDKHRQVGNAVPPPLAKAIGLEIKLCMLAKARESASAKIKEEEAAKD
Chain of DNA (cytosine-5)-methyltransferase 3A (Q9Y6K1 whole entry, looked up): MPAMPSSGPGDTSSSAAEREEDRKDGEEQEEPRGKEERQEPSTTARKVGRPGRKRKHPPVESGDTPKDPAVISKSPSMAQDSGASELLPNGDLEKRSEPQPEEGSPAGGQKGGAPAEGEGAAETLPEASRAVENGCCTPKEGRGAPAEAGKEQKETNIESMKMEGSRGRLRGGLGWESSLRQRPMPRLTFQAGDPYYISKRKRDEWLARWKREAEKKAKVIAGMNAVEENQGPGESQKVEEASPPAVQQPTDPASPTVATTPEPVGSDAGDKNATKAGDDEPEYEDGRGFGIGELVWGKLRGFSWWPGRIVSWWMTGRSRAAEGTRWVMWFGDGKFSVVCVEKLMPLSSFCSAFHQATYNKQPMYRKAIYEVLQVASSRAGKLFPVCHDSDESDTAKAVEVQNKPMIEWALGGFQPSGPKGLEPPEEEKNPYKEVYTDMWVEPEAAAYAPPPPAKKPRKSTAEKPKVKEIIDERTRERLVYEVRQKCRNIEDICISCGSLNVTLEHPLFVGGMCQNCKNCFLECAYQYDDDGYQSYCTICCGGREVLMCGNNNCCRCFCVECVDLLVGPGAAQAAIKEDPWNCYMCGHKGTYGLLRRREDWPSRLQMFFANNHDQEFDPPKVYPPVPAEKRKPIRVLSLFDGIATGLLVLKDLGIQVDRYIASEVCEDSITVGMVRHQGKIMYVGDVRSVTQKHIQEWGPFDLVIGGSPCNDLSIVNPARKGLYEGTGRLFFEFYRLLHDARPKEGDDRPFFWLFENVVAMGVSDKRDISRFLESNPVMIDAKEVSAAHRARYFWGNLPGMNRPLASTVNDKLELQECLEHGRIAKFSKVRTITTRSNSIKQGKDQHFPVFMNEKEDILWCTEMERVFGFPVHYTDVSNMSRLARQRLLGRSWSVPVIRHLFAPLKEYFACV

CN1CCC(Nc2nc(-c3ccnc(F)c3)nc3c2ccn3CCCN2CCCC2)CC1
Activity [1]: 39.7% | CL/F [2]: 322 mL/min/kg | Activity [3]: 13.6% | fold change (FC) [4]: 1.93 | Activity [5]: 39% | Activity [6]: Non-toxic | Cmax [7]: 419 ng/mL | fold change (FC) [8]: 3.05 | Activity [9]: 10.5% | Vdss [10]: 574.7 L/kg | Activity [11]: Non-toxic | Activity [12]: Dose-dependent-effect | IC50 [13]: 1.06 µM | Activity [14]: Non-toxic | inhibition [15]: Active | Activity [16]: 29.9% | Vd [17]: 102 L/kg | Activity [18]: 44.7% | AUC(0-t) at 24 h [19]: 1010 ng·h/mL | Activity [20]: 32% | inhibition [21]: 11% | Activity [22]: Dose-dependent-effect | IC50 [23]: 0.54 µM | Activity [24]: 28.8%
